Data: patent publication US20230295133A1, “PROCESS FOR PREPARING A COMPOUND USEFUL TO TREAT MYCOSES” (PULMOCIDE LIMITED, priority 2014, published 2023)
≈ marks a conversion by molar mass, not a printed value.

Assays:
[1] = test system: Aspergillus fumigatus NCPF7099; test: Broth microdilution assay (modified EUCAST); format: cell-based; details: n = 3, read-out: MIC75 against Aspergillus fumigatus isolate NCPF7099
Method in brief: (§1)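 Spores from 3-day Sabouraud cultures (working suspension 2 × 10^5 spores/mL) were added to an equal volume of RPMI-1640 (2 mM L-glutamine, 0.5% BSA, 2% glucose, 0.165 M MOPS, pH 7) containing compound, in quadruplicate. After 48 hr at 35 °C, OD530 gave percent inhibition. MIC50, MIC75 and MIC90 came from concentration-response curves.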

[2] = test system: Aspergillus fumigatus L98H (TR34/L98H); test: Broth microdilution assay (modified EUCAST); format: cell-based; details: broth microdilution assay, n = 3
Method in brief: as §1

[3] = test system: Aspergillus fumigatus NCPF2010; test: Broth microdilution assay (modified EUCAST); format: cell-based; details: broth microdilution assay, n = 3; read-out: MIC75 against Aspergillus fumigatus isolate NCPF2010
Method in brief: as §1

[4] = test system: Aspergillus fumigatus NCPF7100; test: Broth microdilution assay (modified EUCAST); format: cell-based; details: broth microdilution assay, n = 3
[5] = test system: Aspergillus fumigatus (NCPF2010); test: Resazurin-microtitre assay of planktonic fungus growth; format: cell-based; details: Aspergillus fumigatus NCPF2010; resazurin-microtitre assay
Experimental: This assay was conducted using a modified, published method (Monteiro et al., 2012). Spores of aspergillus fumigatus (NCPF2010, Public Health England, Wiltshire) were cultured in Sabouraud dextrose agar for 3 days. A stock spore suspension was prepared from a Sabouraud dextrose agar culture by washing with PBS-tween (10 mL; PBS containing 0.05% Tween-20, 100 U/mL Penicillin and 100 U/mL Streptomycin). The spore count was assessed using a Neubauer haemocytometer and, using PBS adjusted to 10^6 spores/mL. A working suspension of spores (10^4 spores/mL) was prepared in filter sterilised MOPS RPMI-1640 (50 mL; RPMI-1640 containing 2 mM L-glutamine, 2% glucose and 0.165 M MOPS, buffered to pH 7 with NaOH). Resazurin sodium salt (100 µL of 1% solution; Sigma-Aldrich, Dorset, UK) was added to the spore suspension and mixed well. The spore suspension-resazurin mixture (100 µL/well) was added to 384-well plates (Catalogue number 353962, BD Falcon, Oxford, UK).
Simultaneously, test compounds (0.5 µL DMSO solution) were added to 100 µL of the spore-resazurin mixture in quadruplicate to provide a final DMSO solution of 0.5% using an Integra VIAFLO 96 (Intergra, Zizers, Switzerland). For non-spore control wells, MOPS-RPMI-resazurin solution (100 µL) was added instead of the spore-resazurin mixture. The plate was covered with a Breathe Easier membrane (Catalogue No Z763624, Sigma-Aldrich, Dorset, UK), and incubated (35° C., 5% CO2) until fluorescence in the inoculated wells was double that of the control wells (around 24 hr). The fluorescence of each well (545 nm (excitation) / 590 nm (emission), gain 800, focal height 5.5 mm) was determined using a multi-scanner (Clariostar: BMG, Buckinghamshire, UK). The percentage inhibition for each well was calculated and the MIC50, MIC75 and MIC90 values were calculated from the concentration-response curve generated for each test compound.

[6] = test system: Chaectomium globosum ATCC44699; test: Fungus panel screening, CLSI broth microdilution; format: cell-based
Experimental: Fungus panel screening was conducted by Eurofins Panlabs Inc. The MIC and MIC50 values of the test articles were determined following the guidelines of the Clinical and Laboratory Standards Institute, broth microdilution methods for yeast (CLSI M27-A2), (CLSI, 2002) and for filamentous fungi (CLSI M38-A), (CLSI, 2008).

[7] = test system: aspergillus fumigatus (ATCC 13073 [strain: NIH 5233]); test: Survival of severely immunosuppressed neutropenic infected mice, monotherapy and combination; format: in vivo, A/J mice; details: Example 1 0.4 mg/mL (in); Posaconazole 1 mg/kg (po); once daily days 1-6
Experimental: On day 0, animals were infected intranasally with 35 µL of the spore suspension (1.67 × 10^8 spores/mL in physiological saline) of aspergillus fumigatus (ATCC 13073 [strain: NIH 5233]). Compound Example (I), prepared as a suspension in isotonic saline (0.4 mg/mL), was dosed once daily by an intra-nasal injection (35 µL/mouse) on days 1-6 after infection. Posaconazole (1 mg/kg) was given orally once daily on days 1-6 after infection. Body weight and survival were monitored daily up to day 7.

[8] = test system: Aspergillus fumigatus (NCPF2010) invasion; test: Aspergillus fumigatus infection of human alveoli bilayers (transwells), GM in lower chamber; format: cell-based; details: Posaconazole 0.01 µg/mL lower chamber
Experimental: In vitro models of human alveoli, consisting of a bilayer of human alveolar epithelial cells and endothelial cells, were prepared as previously described (Hope et al., 2007). This system allows administration of a test compound to the upper (“air” space) and/or lower (“systemic” space) compartments. This flexibility has been exploited to explore the effects of combination treatments by dosing compound Example 1 to the upper chamber and posaconazole or other anti-fungal agents to the lower chamber. Primary human pulmonary artery endothelial cells (HPAEC) were harvested and diluted to 10^6 cells/mL in EGM-2 media (Lonza, Basel, Switzerland). Transwells were inverted and the cell suspension (100 µL/well) was applied to the base of each transwell. The inverted transwells were incubated at RT within a flow hood for 2 hr after which they were turned upright. EGM-2 media was added to the lower (700 µL/well) and upper (100 µL/well) compartments and the transwells were incubated for 48 hr (37° C., 5% CO2). The EGM-2 media in the lower compartment was then replaced with fresh EGM-2 media. A549 cells were harvested and diluted to 5×10^5 cells/mL in 10% EBM, then added to the upper compartment (100 µL/well) of all transwells and the plates incubated for 72 hr (37° C., 5% CO2). Conidia of aspergillus fumigatus (the itraconazole sensitive strain NCPF2010 and the itraconazole resistant strain TR34-L98H) were cultured separately in Sabouraud dextrose agar for 3 days. A stock conidia suspension of either strain was prepared from a Sabouraud dextrose agar culture by washing with PBS-tween (10 mL; PBS containing 0.05% Tween-20, 100 U/mL Penicillin and 100 U/mL Streptomycin). The conidia count was assessed using a Neubauer haemocytometer and adjusted to 10^6 conidia/mL with PBS. A working stock of conidia was prepared in EBM (conc of 10^5 conidia/mL) immediately prior to use.
Test and reference compounds (or neat DMSO as the vehicle) were added to the appropriate wells of 24-well plates (3 µL/well containing 600 µL of 2% FBS EBM) for lower compartment treatment and to 96-well plates (1 µL/well containing 200 µL of 2% FBS EBM) for the treatment of the upper compartment, to provide a final DMSO concentration of 0.5%. The media in the upper compartment was aspirated and that containing the appropriate test and reference compounds, or vehicle, were added (100 µL/well). Transwells were then transferred into the 24-well plate containing the test and reference compounds or DMSO vehicle. After incubation for 1 hr (35° C., 5% CO2) the conidia suspension (10 µL/well) was added to the upper compartment of each transwell. Plates were then incubated for 24 hr (35° C., 5% CO2). Supernatants from each compartment (5 µL/compartment) were collected and stored (-20° C.). Media was replaced daily after collection of the supernatants and all wells were treated with test and reference compounds or with DMSO, as described above, for 3 days. Samples continued to be collected until fungal growth was visible by eye in all transwells. The levels of GM in the supernatant in lower compartment were then measured by ELISA (BioRad, CA, USA) as an index of aspergillus fumigatus invasion.

[9] = test system: aspergillus fumigatus (ATCC 13073 [strain: NIH 5233]); test: In vivo anti-fungal activity, prophylactic and therapeutic treatment of infected immunocompromised neutropenic mice; parameters: species or system A/J mice; details: for Cell numbers in BALF, Macrophage / Cell numbers in BALF, Neutrophil / TNFα conc in serum: mean ± SEM
[10] = treatment day 1, Example 1 0.1 µg/mL upper chamber
[11] = treatment day 6, Example 1 0.1 µg/mL upper chamber
[12] = prophylactic treatment (days 0, 1, 2 and 3), 0.4 mg/mL
[13] = prophylactic treatment, 0.08 mg/mL
[14] = prophylactic treatment, 0.4 mg/mL
[15] = prophylactic treatment, 2 mg/mL
[16] = therapeutic treatment (days 1, 2 and 3), 0.4 mg/mL
[17] = therapeutic treatment, 0.4 mg/mL
[18] = therapeutic treatment, 10 mg/mL

C[C@@H]1[C@H](O)[C@@H](C)/C=C/C=C/C=C/C=C/C=C/C=C/C=C/[C@H](O[C@@H]2O[C@H](C)[C@@H](O)[C@H](N)[C@@H]2O)C[C@@H]2O[C@](O)(C[C@@H](O)C[C@@H](O)[C@H](O)CC[C@@H](O)C[C@@H](O)CC(=O)O[C@H]1C)C[C@H](O)[C@H]2C(=O)O [Amphotericin B, reference compound]
MIC [1]: 0.365 µM (≈ 0.337 µg/mL)
MIC75 against Aspergillus fumigatus isolate L98H [2]: 0.209 µM (≈ 0.193 µg/mL)
MIC [3]: 0.382 µM (≈ 0.353 µg/mL)
MIC75 against Aspergillus fumigatus isolate NCPF7100 [4]: >1.08 µM
MIC50 Planktonic fungal growth [5]: 0.0285 µM (≈ 0.0263 µg/mL)
MIC75 Planktonic fungal growth [5]: 0.0644 µM (≈ 0.0595 µg/mL)

Cc1cc(N2CCN(c3ccc(C(=O)Nc4ccc(F)cc4)cc3)CC2)ccc1OC[C@@H]1CO[C@@](Cn2cncn2)(c2ccc(F)cc2F)C1 [Example 1, 4-(4-(4-(((3R,5R)-5-((1H-1,2,4-Triazol-1-yl)Methyl)-5-(2,4-Difluorophenyl)Tetra Hydrofuran-3-yl)Methoxy)-3-Methylphenyl)Piperazin-1-yl)-N-(4-Fluorophenyl) Benzamide]
MIC50 ([6]; 50% inhibition by visual inspection (CLSI)): 0.063 µg/mL (≈ 0.0923 µM)
MIC ([6]; 100% inhibition by visual inspection (CLSI), read-out: MIC100): > 8 µg/mL
Median survival [7]: 6 days
No. of survivors on day 7 [7]: 0/6
Survivors on day 7 (%) [7]: 0%
GM Levels in the Lower Chamber, OD value ([8]; treatment day 0, Example 1 0.1 µg/mL upper chamber): 0 OD
GM Levels in the Lower Chamber, % inhibition vs. control [8, 10]: 86%
GM Levels in the Lower Chamber, OD value [8, 10]: 0.091 OD
GM Levels in the Lower Chamber, % inhibition vs. control ([8]; treatment day 2, Example 1 0.1 µg/mL upper chamber): 3.4%
GM Levels in the Lower Chamber, % inhibition vs. control ([8]; treatment day 3, Example 1 0.1 µg/mL upper chamber): 3.7%
GM Levels in the Lower Chamber, % inhibition vs. control ([8]; treatment day 4, Example 1 0.1 µg/mL upper chamber): 4.5%
GM Levels in the Lower Chamber, % inhibition vs. control ([8]; treatment day 5, Example 1 0.1 µg/mL upper chamber): 0.3%
GM Levels in the Lower Chamber, % inhibition vs. control [8, 11]: -0.3%
GM Levels in the Lower Chamber, OD value [8, 11]: 1.18 OD
GM Levels in the Lower Chamber, % inhibition vs. control ([8]; treatment day 7, Example 1 0.1 µg/mL upper chamber): 0.9%
GM Levels in the Lower Chamber, % inhibition vs. control ([8]; treatment day 8, Example 1 0.1 µg/mL upper chamber): 2.8%
% Inhibition versus Infected Controls, GM in BALF [9, 12]: 92%
% Inhibition versus Infected Controls, GM in serum [9, 12]: 95%
% Inhibition versus Infected Controls, Lung Fungal Load [9, 12]: 81%
Macrophage in BALF, % inhibition [9, 13]: 38%
Neutrophil in BALF, % inhibition [9, 13]: 24%
Cell numbers in BALF, Macrophage [9, 13]: 0.40 ± 0.15 ×10^5/mL
Cell numbers in BALF, Neutrophil [9, 13]: 0.37 ± 0.04 ×10^5/mL
Macrophage in BALF, % inhibition [9, 14]: 51%
Neutrophil in BALF, % inhibition [9, 14]: 47%
Cell numbers in BALF, Macrophage [9, 14]: 0.32 ± 0.07 ×10^5/mL
Cell numbers in BALF, Neutrophil [9, 14]: 0.26 ± 0.12 ×10^5/mL
TNFα conc in serum [9, 14]: 7.3 ± 3.5 pg/mL
Macrophage in BALF, % inhibition [9, 15]: 60%
Neutrophil in BALF, % inhibition [9, 15]: 55%
Cell numbers in BALF, Macrophage [9, 15]: 0.26 ± 0.05 ×10^5/mL
Cell numbers in BALF, Neutrophil [9, 15]: 0.22 ± 0.04 ×10^5/mL
TNFα conc in serum [9, 15]: 4.7 ± 0.4 pg/mL
% Inhibition versus Infected Control, GM in BALF [9, 16]: 94%
% Inhibition versus Infected Control, GM in serum [9, 16]: 91%
% Inhibition versus Infected Control, Lung Fungal Load [9, 16]: 97%
Macrophage in BALF, % inhibition [9, 17]: 34%
Neutrophil in BALF, % inhibition [9, 17]: 22%
Cell numbers in BALF, Macrophage [9, 17]: 0.43 ± 0.05 ×10^5/mL
Cell numbers in BALF, Neutrophil [9, 17]: 0.38 ± 0.04 ×10^5/mL
TNFα conc in serum [9, 17]: 6.2 ± 0.5 pg/mL
Macrophage in BALF, % inhibition ([9]; therapeutic treatment, 2 mg/mL): 38%
Neutrophil in BALF, % inhibition ([9]; therapeutic treatment, 2 mg/mL): 31%
Cell numbers in BALF, Macrophage ([9]; therapeutic treatment, 2 mg/mL): 0.40 ± 0.11 ×10^5/mL
Cell numbers in BALF, Neutrophil ([9]; therapeutic treatment, 2 mg/mL): 0.34 ± 0.05 ×10^5/mL
TNFα conc in serum ([9]; therapeutic treatment, 2 mg/mL): 5.5 ± 0.7 pg/mL
Macrophage in BALF, % inhibition [9, 18]: 51%
Neutrophil in BALF, % inhibition [9, 18]: 45%
Cell numbers in BALF, Macrophage [9, 18]: 0.32 ± 0.07 ×10^5/mL
Cell numbers in BALF, Neutrophil [9, 18]: 0.27 ± 0.08 ×10^5/mL
TNFα conc in serum [9, 18]: 4.9 ± 0.6 pg/mL
